According to PMC6862080, “Blood Compatibility—An Important but Often Forgotten Aspect of the Characterization of Antimicrobial Peptides for Clinical Application” (International Journal of Molecular Sciences, 2019):
Peptide text beside a SMILES is read from it. * marks the point of attachment. Myristoyl = CCCCCCCCCCCCCC(=O)*; Lauroyl = CCCCCCCCCCCC(=O)*; Decanoyl = CCCCCCCCCC(=O)*; Octanoyl = CCCCCCCC(=O)*

Key:
LPS from P. aeruginosa = assay: Endotoxin inactivation in human serum, chromogenic LAL test (P. aeruginosa LPS); format: biochemical; conditions: 500 ng/mL peptide, n = 3; for Reduction of the endotoxin activity in serum vs positive control (in words): 5 ng/mL P. aeruginosa LPS
Protocol: The LPS neutralization study in serum was conducted using a chromogenic Limulus Amebocyte Lysate (LAL) test (Charles River Laboratories, MA, USA). The LAL test is the most established method for quantifying LPS. This method uses amebocyte lysate from Limulus polyphemus, wherein the presence of LPS triggers a defense mechanism that induces coagulation. The LAL test is used successfully for detection of LPS in a wide variety of industrial, pharmaceutical, and research applications, such as water supplies, parenteral fluids, drugs for intravenous administration, and certain biologic fluids (e.g., cerebrospinal fluid). Therefore, serum, which was obtained from freshly drawn blood, was spiked with 500 ng/mL AMPs, PMB or LL-37 before adding 5 ng/mL LPS from E. coli or P. aeruginosa. As positive and negative controls, native serum with and without LPS was used, respectively. Endotoxin activity was measured using the LAL assay according to the manufacturer’s specifications.

E. coli (ATCC 11303) = assay: microbe, parasite or virus in culture; format: cell-based; conditions: ATCC 11303, pH 7.4
S. aureus (ATCC 12600) = assay: microbe, parasite or virus in culture; format: cell-based; conditions: ATCC 12600, pH 7.4
erythrocyte membranes [1] = assay: Hemolysis in whole blood (Kahn method); format: cell-based, human
Protocol: (§1) Hemolysis was tested with fresh citrate anticoagulated blood from healthy volunteers as well as with blood cells which were suspended in phosphate buffered saline (10 mM pH 7.4). Afterwards, 100 μL AMP solution was added to 500 μL blood to finally achieve AMP concentrations of 8, 32, and 128 μg/mL. As the negative and positive control, 100 μL PBS buffer and 100 μL 12% Triton-X buffer was added to 500 μL blood, respectively. After incubation on an orbital shaker for 60 min at 37 °C, the cells were removed by centrifugation and 100 μL of the supernatant were transferred to a 96 well microplate for hemolysis measurement. The hemolysis was calculated from the extinction at the wavelengths 562, 578, and 598 nm with a Synergy 2 microplate reader (BioTek, Winooski, VT, USA) according to the method published by Kahn.

erythrocyte membranes [2] = assay: Hemolysis in RBC suspended in PBS (Kahn method); format: cell-based, human; conditions: pH 7.4
Protocol: as §1

plasmatic coagulation = assay: Clotting batch test in citrate plasma; format: biochemical, human
Protocol: Since the acylated LF11-322 peptides cause plasmatic coagulation of citrate anticoagulated plasma, separate clotting experiments were performed with this peptide group. The aim was to check whether the coagulation activation is dependent on the AMP concentration and on the acyl chain length. […] Plasma without additives served as the negative control, whereas plasma spiked with CaCl2/MgCl2 (500/250 mM) solution to restore the physiological calcium and magnesium level in plasma was used as the positive control. Incubation was performed at 37 °C for 60 min. […] In order to ensure that the measured turbidity of the plasma is caused by fibrin formation, the fibrinogen and D-Dimer concentrations were additionally determined. During plasmatic clotting, the fibrinogen level decreases and the D-Dimer level in serum increases. Both were analyzed on a Sysmex CA560 with the corresponding reagents (Siemens Healthineers, Erlangen, Germany).

platelets [3] = assay: Platelet activation, platelet count in citrate anticoagulated PRP; format: cell-based, human; conditions: 128 μg/mL, 2 h, 37 °C, Sysmex analyzer, n = 3
Protocol: (§2) Since it was observed that some AMPs are able to activate the plasmatic coagulation system of heparinized and citrate anticoagulated blood, the influence of this peptides on platelets was investigated. For this purpose, fresh heparinized and citrated blood were collected from three donors. The blood was centrifuged at 500 g for 5 min and platelet rich plasma (PRP) was obtained. The PRP was incubated at 37 °C for 2 h with 128 μg/mL AMP, PMB, and LL-37. PRP without any additives served as the control. After incubation, the platelet number was determined by a Sysmex Automated Hematology Analyzer KX-21-N (Kobe, Japan). In addition, the PRP samples were prepared for SEM to visualize the morphology of the thrombocytes. After incubation, 10 μL PRP were diluted with 990 μL PBS (0.01 M) and filtered through a 0.2 μm membrane (Membrane Filter Isopore 0.2 μm, Merck, Darmstadt, Germany). The platelets were retained on the membrane, washed with 1 mL PBS, and fixed with 1 mL glutaraldehyde solution (2.5% glutaraldehyde in physiological saline solution). After an incubation time of 60 min, the samples were dehydrated using a series of ethanol (30%, 50%, 60%, 70%, 80%, 90%, and 100%). Afterwards the samples were dried overnight at RT, sputtered with gold and visualized with a scanning electron microscope (FLEXSem 1000, Hitachi, Japan).

platelets [4] = assay: Platelet activation, platelet count in heparin anticoagulated PRP; format: cell-based, human; conditions: 128 μg/mL, 2 h, 37 °C, Sysmex analyzer, n = 3
Protocol: as §2

| Compound | Reduction of endotoxin activity of P. aeruginosa LPS (LPS from P. aeruginosa; 5 ng/mL LPS) [%] | Reduction of the endotoxin activity in serum vs positive control (in words) (LPS from P. aeruginosa) | Minimal Inhibitory Concentration, E. coli, PBS (E. coli (ATCC 11303)) [µg/mL] | Minimal Inhibitory Concentration, S. aureus, PBS (S. aureus (ATCC 12600)) [µg/mL] | Free Hemoglobin, BLOOD, 8 μg/mL (erythrocyte membranes [1]) [mg/dL] | Free Hemoglobin, BLOOD, 32 μg/mL (erythrocyte membranes [1]) [mg/dL] | Free Hemoglobin, BLOOD, 128 μg/mL (erythrocyte membranes [1]) [mg/dL] | Free Hemoglobin, RBC in PBS, 8 μg/mL (erythrocyte membranes [2]) [mg/dL] | Free Hemoglobin, RBC in PBS, 32 μg/mL (erythrocyte membranes [2]) [mg/dL] | Peptide concentration that triggers clotting of citrate plasma (plasmatic coagulation) [µg/mL] | Platelet count in citrate anticoagulated PRP vs control (in words) (platelets [3]) | Platelet count in heparinized PRP vs control (in words) (platelets [4]) |
| --- | --- | --- | --- | --- | --- | --- | --- | --- | --- | --- | --- | --- |
| CCCCCCCCCCCCCC(=O)N[C@@H](Cc1ccccc1)C(=O)N[C@@H](Cc1c[nH]c2ccccc12)C(=O)N[C@@H](CCCNC(=N)N)C(=O)N[C@@H](CCCNC(=N)N)C(=O)N[C@@H](Cc1ccccc1)C(=O)N[C@@H](Cc1c[nH]c2ccccc12)C(=O)N[C@@H](CCCNC(=N)N)C(=O)N[C@@H](CCCNC(=N)N)C(N)=O [LF11-227-C14] (Myristoyl-FWRRFWRR-NH2) | 37 ± 5 | significant (p < 0.05) reduction | > 128 | > 128 | 3.4 ± 2.1 | 3.1 ± 0.9 | 2.6 ± 3.5 | 18.3 ± 12.8 | 41.9 ± 19.9 | – | – | – |
| CCCCCCCCCC(=O)N1CCC[C@H]1C(=O)N[C@@H](Cc1ccccc1)C(=O)N[C@@H](Cc1c[nH]c2ccccc12)C(=O)N[C@@H](CCCNC(=N)N)C(=O)N[C@H](C(=O)N[C@@H](CCCNC(=N)N)C(=O)N[C@H](C(=O)N[C@@H](CCCNC(=N)N)C(=O)N[C@@H](CCCNC(=N)N)C(N)=O)[C@@H](C)CC)[C@@H](C)CC [LF11-322-C10] (Decanoyl-PFWRIRIRR-NH2) | – | – | 8 | 8 | 2.5 ± 2.0 | 6.0 ± 4.6 | 3.0 ± 4.5 | 16.6 ± 2.4 | 48.5 ± 5.5 | – | – | – |
| CCCCCCCC(=O)N[C@@H](Cc1ccccc1)C(=O)N[C@@H](Cc1c[nH]c2ccccc12)C(=O)N[C@@H](CCCNC(=N)N)C(=O)N[C@@H](CCCNC(=N)N)C(=O)N[C@@H](Cc1ccccc1)C(=O)N[C@@H](Cc1c[nH]c2ccccc12)C(=O)N[C@@H](CCCNC(=N)N)C(=O)N[C@@H](CCCNC(=N)N)C(N)=O [LF11-227-C8] (Octanoyl-FWRRFWRR-NH2) | – | – | > 128 | > 128 | 3.6 ± 2.8 | 10.5 ± 13.5 | 2.3 ± 3.7 | 13.0 ± 0.7 | 15.9 ± 2.6 | – | – | – |
| CCCCCCCC(=O)N1CCC[C@H]1C(=O)N[C@@H](Cc1ccccc1)C(=O)N[C@@H](Cc1c[nH]c2ccccc12)C(=O)N[C@@H](CCCNC(=N)N)C(=O)N[C@H](C(=O)N[C@@H](CCCNC(=N)N)C(=O)N[C@H](C(=O)N[C@@H](CCCNC(=N)N)C(=O)N[C@@H](CCCNC(=N)N)C(N)=O)[C@@H](C)CC)[C@@H](C)CC [LF11-322-C8] (Octanoyl-PFWRIRIRR-NH2) | – | – | 8 | 8 | 2.2 ± 0.5 | 9.0 ± 3.8 | 2.7 ± 3.7 | 12.9 ± 1.5 | 26.1 ± 2.5 | ≥ 256 | – | – |
| CCCCCCCCCCCC(=O)N1CCC[C@H]1C(=O)N[C@@H](Cc1ccccc1)C(=O)N[C@@H](Cc1c[nH]c2ccccc12)C(=O)N[C@@H](CCCNC(=N)N)C(=O)N[C@H](C(=O)N[C@@H](CCCNC(=N)N)C(=O)N[C@H](C(=O)N[C@@H](CCCNC(=N)N)C(=O)N[C@@H](CCCNC(=N)N)C(N)=O)[C@@H](C)CC)[C@@H](C)CC [LF11-322-C12] (Lauroyl-PFWRIRIRR-NH2) | – | – | 32 | 16 | 2.4 ± 2.6 | 8.6 ± 8.6 | 3.2 ± 4.5 | 15.5 ± 1.2 | 36.1 ± 2.0 | – | significantly reduce the platelet count | no significant difference in platelet count |
| CCCCCCCCCC(=O)N[C@@H](Cc1ccccc1)C(=O)N[C@@H](Cc1c[nH]c2ccccc12)C(=O)N[C@@H](CCCNC(=N)N)C(=O)N[C@@H](CCCNC(=N)N)C(=O)N[C@@H](Cc1ccccc1)C(=O)N[C@@H](Cc1c[nH]c2ccccc12)C(=O)N[C@@H](CCCNC(=N)N)C(=O)N[C@@H](CCCNC(=N)N)C(N)=O [LF11-227-C10] (Decanoyl-FWRRFWRR-NH2) | – | – | > 128 | > 128 | 2.3 ± 0.6 | 4.2 ± 1.4 | 2.7 ± 4.2 | 18.0 ± 6.7 | 45.1 ± 20.5 | – | – | – |
| H-FWRRFWRR-NH2 [LF11-227-NH2] | – | – | 8 | 8 | 2.4 ± 3.1 | 9.5 ± 12.3 | 2.5 ± 3.8 | 10.0 ± 2.2 | 14.6 ± 3.2 | – | – | – |
| CCCCCCCCCCCC(=O)N[C@@H](Cc1ccccc1)C(=O)N[C@@H](Cc1c[nH]c2ccccc12)C(=O)N[C@@H](CCCNC(=N)N)C(=O)N[C@@H](CCCNC(=N)N)C(=O)N[C@@H](Cc1ccccc1)C(=O)N[C@@H](Cc1c[nH]c2ccccc12)C(=O)N[C@@H](CCCNC(=N)N)C(=O)N[C@@H](CCCNC(=N)N)C(N)=O [LF11-227-C12] (Lauroyl-FWRRFWRR-NH2) | – | significant (p < 0.05) reduction | > 128 | > 128 | 2.6 ± 1.4 | 4.3 ± 2.5 | 2.5 ± 3.6 | 11.6 ± 3.2 | 26.3 ± 12.3 | – | – | – |
